Legend:
[1] = Antioxidative activity (DPPH radical scavenging, modified Blois method); settings: 2 mL sample + 2 mL 0.2 mM DPPH, 30 minutes, absorbance at 517 nm
Experimental: Radical scavenging activity was used using the cosmetic composition for acne skin improvement according to the example as a sample.
The antioxidative activity (electron donation ability, EDA %) of a sample was measured by modifying the Blois method. 2 mL of the sample was mixed with 2 mL of a 0.2 mM DPPH(1,1-diphenyl-2-picryl hydrazyl) solution, and then allowed to stand for 30 minutes, followed by measuring an absorbance at 517 nm.
The radical scavenging activity was expressed as the rate of decrease in absorbance between the sample-added group and the non-added group. The radical scavenging activity was calculated according to the following equation, and results are summarized in [Table 2] below. As a sample for the control, BHT (synthetic antioxidant) was used.
Radical scavenging activity (%)=(1−Absorbance of sample-added group/Absorbance of non-added group)×100

[2] = test system: patient's brain tumor area; assay: Fluorescence visualization of brain tumor after drinking 5-aminolevulinic acid hydrochloride; type: in vivo, human; settings: 19 mg/kg oral, 3 hours before induction of anesthesia, operation 6 hours after drinking; FIG. 1

For `Cc1cc(C(C)(C)C)c(O)c(C(C)(C)C)c1` [Control, BHT], the Radical scavenging activity [1] was 55.3 ± 0.45%.
In the case of `Cl.NCC(=O)CCC(=O)O` [5-aminolevulinic acid hydrochloride], the “Fluorescence of patient's brain tumor area at surgery” value [2] is reported as “emitting a fluorescent color”.

— patent US20230390396A1, “COMPOSITION CONTAINING 5-AMINOLEVULINIC ACID HYDROCHLORIDE” (priority 2020, published 2023)
